Source: US12263156B2, “Use of small molecule inhibitors of the BfrB:Bfd interaction in biofilms” (priority 2020, dated 2025)
Several values for one entry are separate records, joined by “and”; a condition that tells them apart may be missing. Identical values can stand only once.

How the values were obtained:
P. aeruginosa PAO1 = assay: Half maximal inhibitory concentration (IC50) of planktonic growth, CFU/mL enumeration; type: cell-based, Pseudomonas aeruginosa; details: for IC50: Pseudomonas aeruginosa, PAO1
Method: Chemicals were purchased from Fisher Scientific (Waltham, MA) unless otherwise stated. P. aeruginosa PAO1 was obtained from the University of Washington Genome center.^80 The PAO1 strain expressing enhanced yellow fluorescent protein (EYFP) was prepared as described in Soldano, A.; Yao, H.; Chandler, J. R.; Rivera, M. (2020) Inhibiting Iron Mobilization from Bacterioferritin in Pseudomonas aeruginosa Impairs Biofilm Formation Irrespective of Environmental Iron Availability. ACS Infect. Dis. 6, 447-458. 10.1021/acsinfecdis.9b00398.^26 Clinical isolates of P. aeruginosa were purchased from JMI Laboratories (North Liberty, IA, USA). […] Starter cultures of P. aeruginosa PAO1 in 5 mL LB media were grown for 13 hours in 50 mL conical tubes at 37° C. and 220 rpm. For biofilm experiments, a EYFP-expressing P. aeruginosa strain was routinely grown in Pseudomonas Isolation (PI) media (20 g L^−1 peptone, 0.3 g L^−1 MgCl2·6H O, 10 g L^−1 K2SO4, 25 mg L^−1 irgasan, and 20 mL L^−1 glycerol, pH 7.0). Starter cultures were grown from a single colony at 37° C. and shaking at 220 rpm for 14 hours in 5 mL PI media supplemented with 10 μM Fe. Pellicle biofilms were cultured for 48 hours at 30° C. in PI media supplemented with 20 μM Fe. Surface-attached biofilms were cultured in AB minimal media^81 supplemented with trace metals [0.15 μM (NH4)2MoO4, 3 μM CuSO4, 2 μM Co(NO3)2, 9.4 μM Na2B4O7, and 7.6 μM ZnSO4], 3 mM glucose and 15 μM Fe. Iron supplementation was carried out by addition of a small volume of filter-sterilized 10 mM (NH4)2Fe(SO4)2 (pH˜2.0) solution. […]; IC50 values (Table 1 below) were determined as reported previously^25 with small modifications. In brief: precultures of P. aeruginosa PAO1 (5 mL) were grown in LB media for 13 hours at 37° C. and 220 rpm in 50 mL conical tubes (VWR International, PA). The cells were centrifuged for 5 min at 4,000 rpm and 4° C., washed two times and then diluted in buffer (100 mM KH2PO4 and 15 mM (NH4)2SO4 to an optical density at 600 nm (OD600) of 0.1. A small volume of compound stock solution (10 mM) was transferred to a microcentrifuge tube, initially diluted with DMSO to 20 μL, and then diluted to 1 mL with preculture cell suspension in defined media with OD600=0.0001, so the final DMSO concentration is 2%. The resultant cell suspension (200 μL) was transferred to a clear-bottom polystyrene 96-well plate (VWR International, PA) covered with a lid and incubated at 35° C. and 205 cpm for 24 h in a Synergy H1 microplate reader (Biotek Instruments Inc., Winooski, VT). The cell cultures were serially diluted and then plated on PI Agar (PIA; BD Biosciences, San Jose, CA) plates for enumeration of viable cells (CFU/mL). The % growth was calculated from the ratio CFU/mL(treated)/CFU/mL(untreated control). To calculate the IC50 values, the % growth was plotted as a function of compound concentration, expressed as log[compound] (μM), and fitted to the 4-parameter logistic model describing the sigmoid-shaped response pattern (equation 1),^83 where b is the slope factor, max is the upper asymptote (plateau), and min is the lower asymptote. Values are the average and standard deviation from three independent experiments.

BfrB (apo-BfrB) = BfrB (apo-BfrB) (Pseudomonas aeruginosa (strain ATCC 15692 / DSM 22644 / CIP 104116 / JCM 14847 / LMG 12228 / 1C / PRS 101 / PAO1), UniProt Q9HY79); assay: Fluorescence polarization measurement of dissociation constant (Kd); type: binding; details: for Kd: 100 mM potassium phosphate buffer pH 7.6, 1 mM TCEP, 0.5% DMSO, average ± SD
Method: Values were obtained in 100 mM potassium phosphate buffer (pH 7.6) containing 1 mM TCEP and 0.5% DMSO. The initial concentrations of KM-5-25 and KM-5-66 were 5 μM. The Kd values are the average and standard deviation from three independent measurements. […] The IC50 values are the average and the standard derivations from three independent experiments.
Prior to testing the effect that the 4-substituted isoindoline-1,3-dione derivatives might exert on P. aeruginosa cells, the strength of their interaction with BfrB was evaluated in vitro with a fluorescence polarization assay developed based on the intrinsic fluorescence of the isoindoline-1,3-dione moiety.

[1] = system: EYFP-expressing P. aeruginosa PAO1 pellicle biofilms; assay: Determination of viable cells (CFU/mL) in pellicle biofilms; details: for % cell survival, CFU/mL(after treatment)/CFU/mL(pre-treatment): 2-day old pellicles, 24 h
Method: (§1) Pellicle biofilms of EYFP-expressing P. aeruginosa PAO1 or clinical isolates were grown in PI media supplemented with 20 μM Fe. Starter cultures were diluted to OD600=0.001 in 4 mL media, placed in 35×10 mm petri dishes and incubated statically at 30° C. for 48 hours. The pellicles were transferred onto circular (1.5 cm diameter) glass coverslips by gently allowing the surface of a coverslip to contact a pellicle. The pellicle-adhered coverslip was washed in PBS and then deposited on top of 1.5 mL of AB challenge media contained in a well of a 12-well microplate, with the pellicle exposed to the media. […] The coverslip-adhered pellicles were exposed to challenge media at 30° C. for 24 hours, changing the challenge media every 12 hours by transferring the pellicle-adhered coverslip to a new plate containing pre-warmed challenge media.
Pellicle biofilms were grown as described above. Planktonic and loosely attached cells were washed (3 times) by immersing the coverslip-adhered pellicles (biofilm facing up) into a well of a 12-well plate containing 3 mL of PBS, and incubating (5 min) with gentle rocking. To remove the pellicle from the coverslip, break the extracellular matrix and release cells from the biofilm, the coverslip-adhered pellicle was placed in a 50 mL conical tube containing a 2 mL suspension of zirconia beads (0.1 mm diameter, BioSpec Products), 10 mL PBS, 0.2 μg/mL alginate lyase and 0.2 μg/mL DNAse. The resultant mixture was incubated at room temperature for 3 min, followed by vigorous vortexing for 4 min. After sedimentation of the zirconia beads, a 100 μL aliquot was used for serial dilution and plating on PIA plates for subsequent enumeration of viable cells (CFU/mL).
To assess the efficacy of antibiotics and compounds with an approach complementary to imaging with CLSM, dispersing biofilm cells for subsequent enumeration of viable cells (CFU/mL) was resorted to. […] The biofilms were then harvested, and the cells dispersed into sterile PBS by vortexing in the presence of zirconia beads, prior to plating the cell suspensions for subsequent enumeration of CFU/mL. […] A characteristic of cells in the VBNC state is their inability to develop into colonies on routine culture media, even though the cells remain viable for long periods of time.^58-59 Evidence that bacterial cells can enter the VBNC has been obtained by several distinct methods,^59 one of which is the utilization of bacteria engineered to constitutively express bioluminescent proteins, and using the bioluminescence as a reporter of metabolic activity.

Aqueous solubility = type: physicochemical; details: aqueous solution
P. aeruginosa = details: reported MIC; cited from earlier work
[2] = system: EYFP-expressing P. aeruginosa PAO1 pellicle biofilms; assay: Pellicle biofilm assay (CLSM imaging, COMSTAT biomass); type: cell-based, Pseudomonas aeruginosa; details: 24 h; for tolerance or susceptibility of pellicle biofilms (CLSM): 2-day old pellicles, ciprofloxacin, tobramycin 25× and 50× the MIC, colistin above 10× the MIC
Method: as §1
Excess fluorescent dye was washed with PBS, the coverslip was mounted on a glass slide using 5 μL of SlowFade (Invitrogen, Carlsbad, CA) and the edges sealed with fingernail polish. CLSM image stacks (z-step size of 0.3 μm) were acquired with the aid of a Leica TCS SP8 microscope, as described above. Quantitative analysis was performed by determination of pellicle biomass using COMSTAT^54 and the Otsu method of automatic thresholding.^85
To expand the observations made with flow cell biofilms into a second biofilm model, the susceptibility of biofilms grown at the air-liquid interface (pellicles) was also studied.^56-57 Pellicle biofilms (henceforth pellicles) are an attractive alternative platform to study biofilms because pellicles are amenable to imaging by CLSM and to harvesting, which can be desirable for additional biofilm analysis.^26 To determine the susceptibility of pellicles to antibiotics or inhibitors of the BfrB-Bfd complex, 2-day old pellicles of EYFP-expressing P. aeruginosa cells were cultured in PI media supplemented with 20 μM Fe. The pellicles were transferred onto glass coverslips by allowing the surface of the coverslip to contact a pellicle.

[3] = system: EYFP-expressing P. aeruginosa PAO1 biofilms; assay: Flow cell biofilm assay (CLSM imaging, COMSTAT biomass); type: cell-based, Pseudomonas aeruginosa; details: 3-day old flow cell biofilms, 24 h treatment at 25× the MIC
Method: ACS Infect. Dis. […] The experimental shear stress was 0.14-dyn/cm^2 (shear rate=14 s^−1, pressure=7.1 mbar, flow rate=0.4 mL/min) and the switch time was set to 540 s. […] During biofilm growth and challenge with antibacterial, the culture medium in the reservoirs was removed every 12 hours and replaced with fresh pre-warmed medium. […] The biofilms were imaged with the aid of a Leica TCS SP8 confocal microscope (Leica Microsystems, Germany) using a HC PL apo CS2 63×/1.4 oil objective. […] Image stacks were acquired with a z-step size of 0.3 μm at randomly chosen positions. The Leica Application Suite X (LAS-X) software was used for image stack processing.^54 Quantitative analysis of biofilm biomass was performed using the COMSTAT computer program^54 and the Otsu method of automatic thresholding.^85
The treated biofilms were counterstained with the cell impermeable fluorescent nucleic acid dye Sytox Red and then imaged with the aid of confocal laser scanning microscopy (CLSM).

[4] = planktonic growth, 24 h, 35° C, defined media, 2% DMSO, average ± SD of three experiments

Nc1cccc2c1C(=O)NC2=O [Analog 8]
IC50 (μM) (P. aeruginosa PAO1; [4]): Not active

O=C1NC(=O)c2c(NCc3ccccc3O)cccc21 [Analog 11]
IC50 (P. aeruginosa PAO1; [4]): 258 ± 23 µM

O=C1NC(=O)c2c(NCc3cccc(O)c3)cccc21 [Analog 12]
Kd (BfrB (apo-BfrB)): 21 ± 3 µM
IC50 (P. aeruginosa PAO1; [4]): > 120 µM

O=C1NC(=O)c2c(NCCCc3cccc(O)c3)cccc21 [Analog 16]
relative compound activity (rank order) ([1]; pellicles treated 24 h with 50 μM of each analog): KM-5-66>KM-5-25>16>11
Kd (BfrB (apo-BfrB)): 1.5 ± 0.25 µM
IC50 (P. aeruginosa PAO1; [4]): 121 ± 4 µM

O=C1NC(=O)c2c(NCCCc3cc(F)ccc3O)cccc21 [JAG-5-6]
Kd (BfrB (apo-BfrB)): 0.43 ± 0.07 µM
fold lowered Kd relative to KM-5-28 (BfrB (apo-BfrB); relative to KM-5-28): ~3 fold
IC50 (P. aeruginosa PAO1; [4]): 54 ± 9 µM
fold decrease in IC50 relative to KM-5-28 (P. aeruginosa PAO1; relative to KM-5-28): ~2 fold

O=C1NC(=O)c2c(NCc3cc(F)ccc3O)cccc21 [JAG-5-7, 4-((5-Fluoro-2-hydroxybenzyl)amino)isoindoline-1,3-dione]
Kd (BfrB (apo-BfrB)): 7 ± 2 µM
IC50 (P. aeruginosa PAO1; [4]): 128 ± 26 µM

O=C1NC(=O)c2c(NCCCc3ccccc3O)cccc21 [KM-5-28]
Kd (BfrB (apo-BfrB)): 1.4 ± 0.2 µM
IC50 (P. aeruginosa PAO1; [4]): 96 ± 1 µM

O=C1NC(=O)c2c(NCc3c(O)cccc3Cl)cccc21 [KM-5-29, 4-((6-Chloro-2-hydroxybenzyl)amino)isoindoline-1,3-dione]
Kd (BfrB (apo-BfrB)): 6 ± 0.5 µM
aqueous solubility (in words) (Aqueous solubility): poorly soluble in aqueous solution

O=C1NC(=O)c2c(NCc3cccc(Cl)c3O)cccc21 [KM-5-30, 4-((3-Chloro-2-hydroxybenzyl)amino)isoindoline-1,3-dione]
Kd (BfrB (apo-BfrB)): 6 ± 1 µM
IC50 (P. aeruginosa PAO1; [4]): 156 ± 30 µM
fold larger IC50 relative to KM-5-25 (P. aeruginosa PAO1; relative to KM-5-25): ~2.5 fold

O=C1NC(=O)c2c(NCc3cc(O)cc(Cl)c3)cccc21 [KM-5-50, 4-((5-Chloro-3-hydroxybenzyl)amino)isoindoline-1,3-dione]
Kd (BfrB (apo-BfrB)): 11 ± 2 µM
IC50 (P. aeruginosa PAO1; [4]): 82 ± 16 µM

O=C1NC(=O)c2c(NCCCc3cc(Cl)ccc3O)cccc21 [KM-5-54]
Kd (BfrB (apo-BfrB)): 0.22 ± 0.04 µM
fold increase of binding affinity relative to JAG-5-6 (BfrB (apo-BfrB); relative to JAG-5-6): 2 fold
aqueous solubility (in words) (Aqueous solubility): poor water solubility

O=C1NC(=O)c2c(NCCCc3cc(O)cc(O)c3)cccc21 [KM-5-57]
Kd (BfrB (apo-BfrB)): 2.5 ± 0.4 µM
fold increase of Kd relative to 16 (BfrB (apo-BfrB); relative to 16): ~1.7 fold
IC50 (P. aeruginosa PAO1; [4]): > 200 µM

O=C(O)c1cn(C2CC2)c2cc(N3CCNCC3)c(F)cc2c1=O [ciprofloxacin]
MIC (P. aeruginosa): 0.25 μg/mL and 0.75 μM

NC[C@H]1O[C@H](O[C@H]2[C@H](O)[C@@H](O[C@H]3O[C@H](CO)[C@@H](O)[C@H](N)[C@H]3O)[C@H](N)C[C@@H]2N)[C@H](N)C[C@@H]1O [tobramycin, reference compound]
% cell survival, CFU/mL(after treatment)/CFU/mL(pre-treatment) ([1]; antibiotic at 25× the MIC): ~70%
% cell survival, CFU/mL(after treatment)/CFU/mL(pre-treatment) ([1]; antibiotic at 50× the MIC): ~70%
MIC (P. aeruginosa): 0.5 μg/mL and 1.07 μM
tolerance or susceptibility of pellicle biofilms (CLSM) [2]: tolerant
% survival (biomass remaining viable, COMSTAT) [3]: ~70%

colistin
% cell survival, CFU/mL(after treatment)/CFU/mL(pre-treatment) ([1]; antibiotic at 25× the MIC): ~10%
% cell survival, CFU/mL(after treatment)/CFU/mL(pre-treatment) ([1]; antibiotic at 50× the MIC): ~1%
MIC (P. aeruginosa): 1 μg/mL and 0.79 μM
tolerance or susceptibility of pellicle biofilms (CLSM) [2]: susceptible
fluorescence signal from viable cells expressing EYFP ([2]; colistin at 50× the MIC): undetectable
% survival (biomass remaining viable, COMSTAT) [3]: ~20%
